Test results published in ChEMBL document CHEMBL4308864, “Targeting tyrosine kinase: Development of acridone - pyrrole - oxindole hybrids against human breast cancer” (2019).

How the values were obtained:
Format in all cases: functional
NCI-H460 = experiment: Growth inhibition of human NCI-H460 cells assessed as cell growth at 10^-5 M incubated for 48 hrs by sulforhodamine B assay relative to control; details: NCI-H460, 48 h, read-out: Activity
MDA-MB-468 = experiment: Growth inhibition of human MDA-MB-468 cells at 10^-5 M incubated for 48 hrs by sulforhodamine B assay relative to control; details: MDA-MB-468, 48 h, read-out: GI
BT-549 = experiment: Growth inhibition of human BT549 cells assessed as cell growth at 10^-5 M incubated for 48 hrs by sulforhodamine B assay relative to control; details: BT-549, 48 h, read-out: Activity
SN12C = experiment: Growth inhibition of human SN12C cells assessed as cell growth at 10^-5 M incubated for 48 hrs by sulforhodamine B assay relative to control; details: read-out: Activity
DU-145 = experiment: Growth inhibition of human DU145 cells assessed as cell growth at 10^-5 M incubated for 48 hrs by sulforhodamine B assay relative to control; details: DU-145, 48 h, read-out: Activity
UACC-257 = experiment: Growth inhibition of human UACC257 cells assessed as cell growth at 10^-5 M incubated for 48 hrs by sulforhodamine B assay relative to control; details: UACC-257, 48 h, read-out: Activity
MCF7 = experiment: Growth inhibition of human MCF7 cells at 10^-5 M incubated for 48 hrs by sulforhodamine B assay relative to control; details: MCF7, 48 h, read-out: GI
T47D = experiment: Growth inhibition of human T47D cells at 10^-5 M incubated for 48 hrs by sulforhodamine B assay relative to control; details: read-out: GI
SNB-75 = experiment: Growth inhibition of human SNB75 cells assessed as cell growth at 10^-5 M incubated for 48 hrs by sulforhodamine B assay relative to control; details: SNB-75, 48 h, read-out: Activity
CCRF-CEM = experiment: Growth inhibition of human CCRF-CEM cells assessed as cell growth at 10^-5 M incubated for 48 hrs by sulforhodamine B assay relative to control; details: read-out: Activity
UO-31 = experiment: Growth inhibition of human UO31 cells assessed as cell growth at 10^-5 M incubated for 48 hrs by sulforhodamine B assay relative to control; details: UO-31, 48 h, read-out: Activity
SF-539 = experiment: Growth inhibition of human SF539 cells assessed as cell growth at 10^-5 M incubated for 48 hrs by sulforhodamine B assay relative to control; details: SF-539, 48 h, read-out: Activity
RPMI-8226 = experiment: Growth inhibition of human RPMI8226 cells assessed as cell growth at 10^-5 M incubated for 48 hrs by sulforhodamine B assay relative to control; details: RPMI-8226, 48 h, read-out: Activity
IGROV-1 = experiment: Growth inhibition of human IGROV1 cells assessed as cell growth at 10^-5 M incubated for 48 hrs by sulforhodamine B assay relative to control; details: IGROV-1, 48 h, read-out: Activity
SK-MEL-5 = experiment: Growth inhibition of human SK-MEL-5 cells assessed as cell growth at 10^-5 M incubated for 48 hrs by sulforhodamine B assay relative to control; details: SK-MEL-5, 48 h, read-out: Activity
MOLT-4 = experiment: Growth inhibition of human MOLT4 cells assessed as cell growth at 10^-5 M incubated for 48 hrs by sulforhodamine B assay relative to control; details: MOLT-4, 48 h, read-out: Activity
SF-295 = experiment: Growth inhibition of human SF295 cells assessed as cell growth at 10^-5 M incubated for 48 hrs by sulforhodamine B assay relative to control; details: SF-295, 48 h, read-out: Activity
LOX IMVI = experiment: Growth inhibition of human LOXIMVI cells assessed as cell growth at 10^-5 M incubated for 48 hrs by sulforhodamine B assay relative to control; details: read-out: Activity
NCI-H23 = experiment: Growth inhibition of human NCI-H23 cells assessed as cell growth at 10^-5 M incubated for 48 hrs by sulforhodamine B assay relative to control; details: NCI-H23, 48 h, read-out: Activity
SF-268 = experiment: Growth inhibition of human SF268 cells assessed as cell growth at 10^-5 M incubated for 48 hrs by sulforhodamine B assay relative to control; details: SF-268, 48 h, read-out: Activity
MDA-MB-435 = experiment: Growth inhibition of human MDA-MB-435 cells assessed as cell growth at 10^-5 M incubated for 48 hrs by sulforhodamine B assay relative to control; details: MDA-MB-435, 48 h, read-out: Activity
OVCAR-4 = experiment: Growth inhibition of human OVCAR4 cells assessed as cell growth at 10^-5 M incubated for 48 hrs by sulforhodamine B assay relative to control; details: OVCAR-4, 48 h, read-out: Activity
K562 = experiment: Growth inhibition of human K562 cells assessed as cell growth at 10^-5 M incubated for 48 hrs by sulforhodamine B assay relative to control; details: K562, 48 h, read-out: Activity
HCT-15 = experiment: Growth inhibition of human HCT15 cells assessed as cell growth at 10^-5 M incubated for 48 hrs by sulforhodamine B assay relative to control; details: HCT-15, 48 h, read-out: Activity
OVCAR-3 = experiment: Growth inhibition of human OVCAR3 cells assessed as cell growth at 10^-5 M incubated for 48 hrs by sulforhodamine B assay relative to control; details: OVCAR-3, 48 h, read-out: Activity
NCI-H322M = experiment: Growth inhibition of human NCI-H322M cells assessed as cell growth at 10^-5 M incubated for 48 hrs by sulforhodamine B assay relative to control; details: read-out: Activity
SR = experiment: Growth inhibition of human SR cells assessed as cell growth at 10^-5 M incubated for 48 hrs by sulforhodamine B assay relative to control; details: read-out: Activity
ACHN = experiment: Growth inhibition of human ACHN cells assessed as cell growth at 10^-5 M incubated for 48 hrs by sulforhodamine B assay relative to control; details: read-out: Activity
OVCAR-8 = experiment: Growth inhibition of human OVCAR8 cells assessed as cell growth at 10^-5 M incubated for 48 hrs by sulforhodamine B assay relative to control; details: OVCAR-8, 48 h, read-out: Activity
NCI-H522 = experiment: Growth inhibition of human NCI-H522 cells assessed as cell growth at 10^-5 M incubated for 48 hrs by sulforhodamine B assay relative to control; details: NCI-H522, 48 h, read-out: Activity
SW-620 = experiment: Growth inhibition of human SW620 cells assessed as cell growth at 10^-5 M incubated for 48 hrs by sulforhodamine B assay relative to control; details: SW-620, 48 h, read-out: Activity
KM12 = experiment: Growth inhibition of human KM12 cells assessed as cell growth at 10^-5 M incubated for 48 hrs by sulforhodamine B assay relative to control; details: KM12, 48 h, read-out: Activity
Hs-578T = experiment: Growth inhibition of human Hs578T cells assessed as cell growth at 10^-5 M incubated for 48 hrs by sulforhodamine B assay relative to control; details: read-out: Activity

| SMILES | growth at 10 µM (NCI-H460) | inhibition of growth at 10 µM (MDA-MB-468) | growth at 10 µM (BT-549) | growth at 10 µM (SN12C) | growth at 10 µM (DU-145) | growth at 10 µM (UACC-257) | inhibition of growth at 10 µM (MCF7) | inhibition of growth at 10 µM (T47D) | growth at 10 µM (SNB-75) | growth at 10 µM (CCRF-CEM) | growth at 10 µM (UO-31) | growth at 10 µM (SF-539) | growth at 10 µM (RPMI-8226) | growth at 10 µM (IGROV-1) | growth at 10 µM (SK-MEL-5) | growth at 10 µM (MOLT-4) | growth at 10 µM (SF-295) | growth at 10 µM (LOX IMVI) | growth at 10 µM (NCI-H23) | growth at 10 µM (SF-268) | also measured |
| --- | --- | --- | --- | --- | --- | --- | --- | --- | --- | --- | --- | --- | --- | --- | --- | --- | --- | --- | --- | --- | --- |
| O=C1/C(=C\c2cccn2CCCCCCn2c3ccccc3c(=O)c3ccccc32)c2ccccc2N1c1c(Cl)cccc1Cl | 109% | 56% | 104% | 103% | 113% | 99.6% | 85% | 57% | 95.2% | 108% | 70.2% | 104% | 93.4% | 90.6% | 94.7% | 91.2% | 99.2% | 98.5% | 101% | 94.7% | growth at 10 µM (MDA-MB-435): 105%; growth at 10 µM (OVCAR-4): 58.3%; growth at 10 µM (K562): 97.9%; growth at 10 µM (HCT-15): 67.1%; growth at 10 µM (OVCAR-3): 102%; growth at 10 µM (NCI-H322M): 98.6%; growth at 10 µM (SR): 91.5%; growth at 10 µM (ACHN): 97.7%; growth at 10 µM (OVCAR-8): 98.5%; growth at 10 µM (NCI-H522): 91%; growth at 10 µM (SW-620): 108%; growth at 10 µM (KM12): 69.8%; growth at 10 µM (Hs-578T): 103% |
| O=C1NC(=O)C(=Cc2cccn2CCCCn2c3ccccc3c(=O)c3ccccc32)C(=O)N1 | 90.2% | 40% | 88.1% | 86.6% | 92.2% | 91.4% | 43% | 43% | 92.6% | 64.1% | 63.4% | 85.4% | 49.4% | 72.1% | 73.8% | 70.4% | 78.5% | 82.6% | 81.7% | 85.7% | growth at 10 µM (MDA-MB-435): 79.9%; growth at 10 µM (OVCAR-4): 87.2%; growth at 10 µM (K562): 58.9%; growth at 10 µM (HCT-15): 81.4%; growth at 10 µM (OVCAR-3): 96.6%; growth at 10 µM (NCI-H322M): 97.3%; growth at 10 µM (SR): 51.6%; growth at 10 µM (ACHN): 92.8%; growth at 10 µM (OVCAR-8): 86.4%; growth at 10 µM (NCI-H522): 70.5%; growth at 10 µM (SW-620): 87.9%; growth at 10 µM (KM12): 74.3%; growth at 10 µM (Hs-578T): 85.1% |
| O=C1Nc2ccccc2/C1=C/c1cccn1CCCCCn1c2ccccc2c(=O)c2ccccc21 | 95.9% | 62% | 65.5% | 97.1% | 97.9% | 106% | 99% | 98% | 86.7% | 44.9% | 49.3% | 94.2% | 22.1% | 73% | 32.2% | 46% | 93.1% | 80.3% | 69.6% | 83.3% | growth at 10 µM (MDA-MB-435): 93.6%; growth at 10 µM (OVCAR-4): 57.1%; growth at 10 µM (K562): 52.1%; growth at 10 µM (HCT-15): 28.9%; growth at 10 µM (OVCAR-3): 70.9%; growth at 10 µM (NCI-H322M): 98.8%; growth at 10 µM (SR): 76.1%; growth at 10 µM (ACHN): 55.1%; growth at 10 µM (OVCAR-8): 45.6%; growth at 10 µM (NCI-H522): 66.3%; growth at 10 µM (SW-620): 100%; growth at 10 µM (KM12): 12.1%; growth at 10 µM (Hs-578T): 90.5% |
| O=C1/C(=C\c2cccn2CCCCCn2c3ccccc3c(=O)c3ccccc32)c2ccccc2N1c1c(Cl)cccc1Cl | 99.7% | 39% | 97.1% | 100% | 111% | 100% | 87% | 72% | 87.3% | 100% | 75.5% | 97% | 92.3% | 98.7% | 96.2% | 87.6% | 103% | 96.6% | 98% | 95.7% | growth at 10 µM (MDA-MB-435): 108%; growth at 10 µM (OVCAR-4): 62.3%; growth at 10 µM (K562): 97.6%; growth at 10 µM (HCT-15): 59.8%; growth at 10 µM (OVCAR-3): 99.1%; growth at 10 µM (NCI-H322M): 110%; growth at 10 µM (SR): 92.3%; growth at 10 µM (ACHN): 100%; growth at 10 µM (OVCAR-8): 97.7%; growth at 10 µM (NCI-H522): 84.9%; growth at 10 µM (SW-620): 95.7%; growth at 10 µM (KM12): 69.4%; growth at 10 µM (Hs-578T): 101% |
| O=C1NC(=O)C(=Cc2cccn2CCCn2c3ccccc3c(=O)c3ccccc32)C(=O)N1 | 105% | 7% | 98.9% | 101% | 108% | 102% | 12% | 15% | 95.7% | 92.7% | 75.9% | 102% | 88% | 101% | 95.2% | 93.7% | 98.7% | 96.9% | 104% | 99.7% | growth at 10 µM (MDA-MB-435): 104%; growth at 10 µM (OVCAR-4): 104%; growth at 10 µM (K562): 88.4%; growth at 10 µM (HCT-15): 96.5%; growth at 10 µM (OVCAR-3): 112%; growth at 10 µM (NCI-H322M): 98.5%; growth at 10 µM (SR): 91.8%; growth at 10 µM (ACHN): 102%; growth at 10 µM (OVCAR-8): 101%; growth at 10 µM (NCI-H522): 88.6%; growth at 10 µM (SW-620): 107%; growth at 10 µM (KM12): 99.6%; growth at 10 µM (Hs-578T): 115% |
